Three compounds from patent publication US6849607B2, “Galectin recognized photosensitizers for photodynamic therapy” (Health Research, Inc., priority 2001, dated 2005) can be followed below.

Test [1] addresses Gal-1 (Homo sapiens, UniProt P09382). Put plainly: Gal-1 inhibition binding, indirect ELISA (Gal-1-HRP conjugate on asialofetuin-coated wells). Here is the method: Cell. Biochem., 43, 43-57, 1990) to eliminate the thiol requirement for retention of carbohydrate-binding activity. Coupling of alkylated galaptin to Horseradish peroxidase (HRP) was carried out by a two-step glutaraldehyde procedure as described by Engvall (Engvall E., Enzyme Immunoassay ELISA and EMIT, Methods in Enzymology, 70, 419-439, 1980). The galactin-peroxidase conjugate was prepared in 50% glycerol-1% BSA and stored at -20° C. until use. The binding of the Gal-1 to photosensitizers with and without the galactose moiety was measured by an indirect ELISA method as described by Chen et al. […] The microtiter wells (Dynatech Laboratories, Chantilly, Va.) were coated with 2 μg asial fetuin (Sigma) in 100 μl of 0.1M sodium carbonate, 0.2% NaN3, pH 9.6 at 37° C. for 3h. The plates were tightly covered with parafilm and stored at 4° C. for use within three weeks. The optimal dilution for Gal-1HRP conjugate was determined by checker-board titration. For studying the effect of saccharides and their conjugates, 60 μl aliquots of diluted Gal-1-HRP conjugate containing 1.4 μg of Gal-1 were mixed separately in duplicate with 60 μl dilute buffer as well as serially diluted test compounds and incubated for 1 h at 37° C. A 100 μl aliquot was transferred to the microtiter wells, which had been coated with […] Fetuin, blocked and washed. The plates were then incubated for 1 h at 37° C. followed by color development with ABTS (Kirkegaard & Perry lab. Gaithersburg, Md.) and reading at 405 nm on an ELISA reader.
In general terms: In an ELISA, binding on a coated surface is turned into a signal by an enzyme label.

Test [2] has as its system radiation induced fibrosarcoma (RIF) tumor cell. Put plainly: In vitro photosensitizing activity in RIF tumor cells (MTT). It counts as cell-based. The note with it: 2.0 μM, light dose of 4 J/cm2. Here is the method: Both cell lines are known to have some expression for Galectin-1 (Sacchettini, J. C., Baum, L. G. and Brewer, C. F., Multivalent Protein-carbohydrate Interactions. A New Paradiagm for Super Molecular Assembly and Signal Transduction, Biochemistry, 40:3009-3015, 2001). The Molt-4 cells were grown in RPMI 1640 5% FCS (Fetal calf serum) in 100% humidity with 5% CO2. Cells were transferred to phenol red free (PRF) RPMI 1640 media with 1% FCS and plated at 2.5×10^4 cells/well. After 3 hours incubation in the dark, the cells were washed once with PBS and re-suspended in prf RPMI 1640 with 1% FCS. These cells were then illuminated with a 1000W Quartz Halogen Lamp with IR and bandpass dichroic filters to allow light between 400 nm-700 nm, at a dose rate of 16 mW/cm^2 at 695 nm. The RIF tumor cells were grown in alpha-DMEM with 10% fetal calf serum, penicillin and streptomycin. Cells were maintained in 5% CO2, 95% air and 100% humidity. For determining the PDT efficacy, these cells were plated in 96-well plates and a density of 1×10^4 cells well in complete media. After overnight incubation to allow the cells to attach the photosensitizers 14 were individually added at variable concentrations. After a 3 hr incubation in the dark at 37° C., the cells were washed once with PBS, then irradiated with the same light source as above (Molt-4 procedure), and the optimal cell kill was obtained at a concentration of 1.0 μM. After PDT the cells were washed once and placed in complete media and incubated for 48 hrs. […] The 96-well plate was read on a microtiter plate reader (Miles Inc. Titertek Multiscan Plus MK II) at an absorbance of 560 nm. […]

Test [3] relates to Molt-4 human leukemic T-cells. Put plainly: In vitro photosensitizing efficacy in Molt-4 cells (MTT). The note with it: for effect of the free saccharide on PDT activity of the conjugate: Molt-4 cells incubated with galactose or lactose at various concentrations (0-100 μM). It counts as cell-based. Here is the method: Both cell lines are known to have some expression for Galectin-1 ([…]., Baum, L. G. and Brewer, C. F., Multivalent Protein-carbohydrate Interactions. A New […] for Super Molecular Assembly and Signal Transduction, Biochemistry, 40:3009-3015, 2001). The Molt-4 cells were grown in RPMI 1640 5% FCS (Fetal calf serum) in 100% humidity with 5% CO2. Cells were transferred to phenol red free (PRF) RPMI 1640 media with 1% FCS and plated at 2.5×10^4 cells/well. After 3 hours incubation in the dark, the cells were washed once with PBS and re-suspended in prf RPMI 1640 with 1% FCS. These cells were then illuminated with a […] Quartz Halogen Lamp with IR and bandpass dichroic filters to allow light between 400 nm-700 nm, at a dose rate of 16 mW/cm^2 at 695 nm. The RIF tumor cells were grown in alpha-DMEM with 10% fetal calf serum, penicillin and streptomycin. Cells were maintained in 5% CO2, 95% air and 100% humidity. […] After overnight incubation to allow the cells to attach the photosensitizers 14 were individually added at variable concentrations. After a 3 hr incubation in the dark at 37° C., the cells were washed once with PBS, then irradiated with the same light source as above (Molt-4 procedure), and the optimal cell kill was obtained at a concentration of 1.0 μM. After PDT the cells were washed once and placed in complete media and incubated for 48 hrs. […] Louis, Mo.) was added to each well (Kessel, D., Luo, Y., Photodynamic Therapy: A Mitochondrial Inducer of Apoptosis, Cell Death Differ. 6:28-35, 1999; MacDonald, I., Morgan, […]., Litchfield, D. J. Dougherty, T. J., Subcellular Localization Patterns and their Relationship to Photodynamic Activity of Pyropheophorbide-a Derivatives, Photochem. Photobiol., 70, 789-997, 1999). After 4 hr incubation at 37° C. the MTT+media were removed and 100 μl DMSO was added to solubilize the formazin crystals. The 96-well plate was read on a microtiter plate reader (Miles Inc. Titertek Multiscan Plus MK II) at an absorbance of 560 nm. The results were plotted as percent survival of the corresponding dark (drug no light) control for each compound tested. Each data point represents the mean from 3 separate experiments, and the error bars are the standard deviation. Each experiment was done with 5 replicate wells. […] The cells were then washed once with phosphate buffer saline (PBS), carbohydrate conjugates were then added, and the cells were again incubated for an additional 3 hrs. After treating with light, the cells were re-suspended in fresh media and incubated for 48 hrs. MTT was added to the cells and incubated for an additional 4 hrs. Dimethylsulfoxide (100 μl) was then added to each well to dissolve the formazin crystals. The plates were read on a 96 well plate reader at an absorbance of 560 nm. The data are in replicates of 6 wells and are normalized to control cells (light, no drug). In another set of experiments, a similar procedure was followed, except, the cells were not washed before the light treatment. […] Louis, Mo.) was added to the cells and incubated for an additional 4 hrs. Dimethylsulfoxide (100 μl) was then added to each well to dissolve the formazin crystals. The plates were read on a 96 well plate reader (Miles Inc. Titertek Multiscan Plus MK II) at an absorbance of 560 nm. The data are in replicates of 6 wells and are normalized to control cells (light, no drug).

Sequence of Gal-1 (P09382 whole entry): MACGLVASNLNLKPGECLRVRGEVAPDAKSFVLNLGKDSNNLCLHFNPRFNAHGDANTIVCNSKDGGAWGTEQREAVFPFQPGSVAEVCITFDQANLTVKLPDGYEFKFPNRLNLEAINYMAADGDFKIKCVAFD

Regarding `C=C(C=CCO[C@@H]1O[C@H](CO)[C@H](O)[C@H](O)[C@H]1O)CN1C(=O)c2c3nc(cc4[nH]c(cc5nc(cc6[nH]c2c(c6C)C1=O)C(CC)=C5C)c(CC)c4C)C(C)C3CCC(=O)OC` (mixture of isomers) [2a, Galactose-Chlorin conjugate Joined with diene linkage], the IC50 in test [1] (ELISA, read-out: I50, inhibition of Gal-1 binding) came to 114 µM. The cell kill in test [2] is on record as 100%. The “in vitro photosensitizing efficacy (in words)” value in test [3] (Molt-4 cells, 2.0 μM, 2a, 3a compared to 1a, 4a compared to 2a and 3a) is given as “significant increases in photosensitizing efficacy”. Also, the “effect of free lactose on PDT efficacy of the photosensitizer” value in test [3] (Molt-4 cells, photosensitizer with lactose in a ratio of 1:100, without washing) was “complete inhibition in PDT efficacy”.
With `O=C[C@H](O)[C@@H](O)[C@@H](O)[C@H](O)CO` [galactose, reference compound], in test [1] (at 450 μM), the inhibition (as a rule, the change of the read-out against control, counted positive when it falls) at 450 µM stood at 3% and the “inhibition of Gal-1 binding” value amounted to 3.29%. Also, the “effect of the free saccharide on PDT activity of the conjugate” value in test [3] is listed as “did not result in any inhibition in PDT activity”.
Consider `OC[C@H]1O[C@@H](O[C@H]2[C@H](O)[C@@H](O)C(O)O[C@@H]2CO)[C@H](O)[C@@H](O)[C@H]1O` (some centres unmarked) [lactose, reference compound], for which the “effect of the free saccharide on PDT activity of the conjugate” value in test [3] is given as “significant decrease in photosensitizing efficacy”.
